From ChEMBL document CHEMBL3046478, “Evaluating anti-Toxoplasma gondii activity of new serie of phenylsemicarbazone and phenylthiosemicarbazones in vitro” (Med Chem Res, 2013)
The source made the active and inactive calls. The rule behind the calls is not given here.

Legend:
[1] = test system: Vero; assay: Cytotoxicity against Chlorocebus aethiops (African green monkey) Vero cells infected with Toxoplasma gondii RH tachyzoites assessed as cell death and morphological alterations at 1 mM after 24 hr by microscopic analysis; format: cell-based; conditions: chlorocebus sabaeus, 1000 µM
[2] = test system: Vero; assay: Cytotoxicity against Chlorocebus aethiops (African green monkey) Vero cells infected with Toxoplasma gondii RH tachyzoites assessed as cell death and morphological alterations at 0.5 mM after 24 hr by microscopic analysis; format: cell-based; conditions: chlorocebus sabaeus, 500 µM
[3] = Cytotoxicity against Chlorocebus aethiops (African green monkey) Vero cells infected with Toxoplasma gondii RH tachyzoites assessed as cell death and morphological alterations after 24 hr by microscopic analysis; format: cell-based; conditions: chlorocebus sabaeus, read-out: LD50
[4] = test system: Toxoplasma gondii; assay: Antiparasitic activity against Toxoplasma gondii RH tachyzoites infected African green monkey Vero cells assessed as reduction in number of intracellular parasites at 0.1 mM treated 24 hr after parasite infection measured after 24 hr by Giemsa staining based microscopic analysis; format: functional, organism-based
[5] = test system: Toxoplasma gondii; assay: Antiparasitic activity against Toxoplasma gondii RH tachyzoites infected African green monkey Vero cells assessed as reduction in number of intracellular parasites at 0.01 mM treated 24 hr after parasite infection measured after 24 hr by Giemsa staining based microscopic analysis; format: functional
[6] = test system: Toxoplasma gondii; assay: Antiparasitic activity against Toxoplasma gondii RH tachyzoites infected African green monkey Vero cells assessed as mortality treated 24 hr after parasite infection measured after 24 hr by Giemsa staining based microscopic analysis; format: functional; conditions: read-out: LD50 (the source's name)
[7] = test system: Vero; assay: Cytotoxicity against Chlorocebus aethiops (African green monkey) Vero cells infected with Toxoplasma gondii RH tachyzoites assessed as cell death and morphological alterations at 0.01 mM after 24 hr by microscopic analysis; format: cell-based; conditions: chlorocebus sabaeus, 10 µM
[8] = test system: Toxoplasma gondii; assay: Antiparasitic activity against Toxoplasma gondii RH tachyzoites infected African green monkey Vero cells assessed as reduction in number of infected Vero cells at 0.01 mM treated 24 hr after parasite infection measured after 24 hr by Giemsa staining based microscopic analysis; format: functional
[9] = test system: Toxoplasma gondii; assay: Antiparasitic activity against Toxoplasma gondii RH tachyzoites infected African green monkey Vero cells assessed as reduction in number of intracellular parasites at 1 mM treated 24 hr after parasite infection measured after 24 hr by Giemsa staining based microscopic analysis; format: functional, organism-based

Compound | Activity [1] | Activity [2] | CC50 at 24 h [3] | inhibition [4] | inhibition at 10 µM [5] | LC50 [6] | Activity [7] | inhibition at 10 µM [8] | inhibition [9]
O=C(N/N=C/c1cc(O)c(O)cc1O)Nc1ccccc1 | Toxic | Toxic | 300 µM | Active | 82% | 6 µM | Non-toxic |  | 
O=C(/N=C/c1ccc(O)c(O)c1O)NNc1ccccc1 | Toxic | Toxic | 70 µM |  |  | 20 µM | Non-toxic | 50% | 
COc1cc(O)cc(OC)c1/C=N/NC(=O)Nc1ccccc1 |  |  | > 1000 µM |  |  | 500 µM | Non-toxic |  | 
Oc1ccc(/C=N/NC(=S)Nc2ccccc2)c(O)c1O | Toxic | Toxic | 400 µM |  |  | 30 µM | Non-toxic |  | 
O=C(/N=C/c1cc(O)c(O)cc1O)NNc1ccccc1 | Toxic | Toxic | 400 µM |  |  | 300 µM | Non-toxic |  | 
COc1cc(O)cc(OC)c1/C=N/NC(=S)Nc1ccccc1 | 100% | 50% | 700 µM |  |  | 200 µM | Non-toxic |  | 
COc1cc(O)cc(OC)c1/C=N/C(=O)NNc1ccccc1 |  |  | > 1000 µM |  |  | 600 µM | Non-toxic |  | Active
O=C(N/N=C/c1ccc(O)c(O)c1O)Nc1ccccc1 | Toxic | Toxic | 300 µM |  |  | 200 µM | Non-toxic |  | 
Oc1cc(O)c(/C=N/NC(=S)Nc2ccccc2)cc1O | Toxic | Toxic | 300 µM |  |  | 80 µM | Non-toxic |  | 
Nc1ccc(S(=O)(=O)Nc2ncccn2)cc1 [SULFADIAZINE] |  |  | > 10000 µM |  |  | 6000 µM |  |  | 
